Assay results published in US20220257764A1, “USE OF DIKETONE COMPOUND IN PHOTODYNAMIC THERAPY OR DIAGNOSIS” (BEIJING WHOLESOMETECH CO., LTD., priority 2019, published 2022).

Key:
B16 melanoma cell = test: MTT toxicity to tumor cells, under light and in the dark; format: cell-based; conditions: Mus musculus, under light, 450-480 nm laser, 110 mW/cm^2, 900 s
Experimental: (§1) In this experimental example, the toxicity of the compound to tumor cells was tested by an MTT method including the following specific steps.
(§2) (1) Logarithmic cells were collected, the concentration of a cell suspension was adjusted, the cell suspension was added to a cell culture plate in a dose of 100 μL per well, and the cells were then added to a cell culture plate so that the density of the cells to be tested was adjusted to 1000-10000 wells (edge wells were filled with sterile PBS).
(§3) (2) The cells were incubated at 37° C. in the presence of 5% CO2 until the cells in a single layer covered the bottom of each well (96-well flat-bottom plate), and a drug in concentration gradients was added. Generally, the drug in 5 to 7 gradients was added in a dose of 100 μL per well, and 3 to 5 multi-wells were set.
(§4) (3) The cells were randomly divided into treated groups under light and treated groups in the dark, incubated at 37° C. in the presence of 5% CO2 for 16 h to 48 h, and observed with an inverted microscope.
(§5) (4) The cells were irradiated for 900 s with a laser having a wavelength of 450 nm to 480 nm (at an intensity of 110 mW/cm^2), and the final light dose was about 100 J/cm^2. After light irradiation, the cells were washed with PBS.
(§6) (5) An MTT solution (5 mg/ml, 0.5% MTT) was added in a dose of 20 μL per well to further incubate the cells for 4 h. If the drug could react with the MTT, centrifuging was carried out first, and then the culture solution was discarded and the cells were carefully washed twice or three times with PBS, and then the culture solution containing MTT was added.
(§7) (6) The culture was terminated and the culture solution in the wells was carefully removed.
(§8) (7) Dimethyl sulfoxide was added in a dose of 150 μL per well, and the plate was then shaken on a shaker at a low speed for 10 min to fully dissolve crystals. The absorbance at OD 490 nm of each well was measured with enzyme-linked immunoassay.
(§9) (8) Zero adjustment wells (medium, MTT, dimethyl sulfoxide) and control wells (cells, dissolving media of the same concentration, culture solution, MTT, dimethyl sulfoxide) were set at the same time.

Hela cells = test: as above; format: cell-based; conditions: Homo sapiens, under light, 450-480 nm laser, 110 mW/cm^2, 900 s
Experimental: as §1, §2, §3, §4, §5, §6, §7, §8, §9

SW480 colon cancer cells = test: as above; format: cell-based; conditions: Homo sapiens, SW480; under light, 450-480 nm laser, 110 mW/cm^2, 900 s
Experimental: as §1, §2, §3, §4, §5, §6, §7, §8, §9

[1] = Phototoxicity to healthy mice (body weight, blood routine, blood biochemistry); format: in vivo, BALB/C mice
Experimental: BALB/C mice were divided into 2 groups in total, 9 mice in each group. The mice were fed adaptively for 2 days. Mice in a control group were fed normally, and mice in an experimental group were given photodynamic therapy by subcutaneous injection every other day under the irradiation of laser with a wavelength of 450 nm to 480 nm at a light intensity of 200 mW/cm^2.
Administration mode: as shown in the table below, the photosensitizer was dissolved in physiological saline and subcutaneously injected in mice in the experimental group, and the group receiving photodynamic therapy was irradiated with light immediately after the injection.
2. The mice in the experimental group and the control group were weighed every other day. At the end of the experiment, the mice were subjected to blood collection for serum separation and necropsy, and blood routine indicators (including WBC, RBC, LY, PLT and many other blood routine indicators) and blood biochemical indicators (including routine blood biochemical indicators) were tested and analyzed in the Laboratory of Peking University Third Hospital.

[2] = test system: human cervical cancer Hela cells; test: MTT cytotoxicity, Experimental Example 5; format: cell-based
Experimental: (1) Logarithmic phase cells were collected, the concentration of a cell suspension was adjusted, the cell suspension was added to a cell culture plate in a dose of 100 μL per well, and the cells were then added to a cell culture plate so that the density of the cells to be tested was adjusted to 1000-10000 wells (edge wells were filled with sterile PBS). […] Generally, the drug in 5 to 7 gradients was added in a dose of 100 μL per well, and 3 to 5 wells were set for each concentration of a drug. […] Cells in the experimental photosensitizer-light irradiation group were incubated for 15 min and then irradiated with light. […] After light irradiation, the cells were washed with PBS. […] After light irradiation, the cells were washed with PBS. […] If the drug could react with the MTT, centrifuging was carried out first, and then the culture solution was discarded and the cells were carefully washed twice or three times with PBS, and then the culture solution containing MTT was added. (6) The culture was terminated and the culture solution in the wells was carefully removed. (7) Dimethyl sulfoxide was added in a dose of 150 μL per well, and the plate was then shaken on a shaker at a low speed for 10 min to fully dissolve crystals. The absorbance at OD 490 nm of each well was measured with enzyme-linked immunoassay. […]

[3] = 3% subcutaneous injection + light 10 min, after 2 weeks

## CC(=O)C(C)=O [BJMU-204]
B16 melanoma cell
  IC50: 500 ± 30 nM
Hela cells
  IC50: 600 ± 20 nM
SW480 colon cancer cells
  IC50: 600 ± 50 nM
[1]; 3% subcutaneous + light, 14 days after treatment
  body weight, experimental group vs control group: no significant difference
[1]; [3]
  Hematocrit (HCT): 45.22 ± 2.83
  Hemoglobin (HGB): 160.22 ± 12.07
  Mean corpuscular hemoglobin (MCH): 16.18 ± 0.34
  Mean corpuscular hemoglobin concentration (MCHC): 354.11 ± 8.19
  Mean corpuscular volume (MCV): 45.71 ± 0.6
  Mean platelet volume (MPV): 6.23 ± 0.37
  Platelet count (PLT): 290 ± 50.23
  Platelet distribution width (PDW): 14.84 ± 0.6
  Plateletocrit (PCT): 0.17 ± 0.03
  Red blood cell volume distribution width (RDW): 12.67 ± 0.54
  Red blood count (RBC): 9.9 ± 0.72
  White blood cell count (WBC): 6.56 ± 0.54
[1]; continuous treatment for 14 days at high concentration therapeutic doses
  liver, kidney and blood toxicity: will not cause liver, kidney and blood toxicity
[2]; given in the dark
  cytotoxicity to Hela cells: relatively low cytotoxicity
[2]; given under blue light, 450-480 nm, 110 mW/cm^2, 900 s
  cytotoxicity to Hela cells: relatively high cytotoxicity
